We go through one compound from US8163921B2, “Hepatitis C virus inhibitors” (Bristol-Myers Squibb Company, priority 2008, dated 2012).

The target of experiment [1] is T1, porcine pancreatic elastase (PPE) (Sus scrofa, UniProt P00772).
T1 construct: purchased Sigma, EMDbiosciences
Description: Specificity assay, PPE. Type of experiment: biochemical. The conditions noted are these: read-out: PPE activity in the specificity assays. The method, then:
The specificities of compounds of the present disclosure were determined against a variety of serine proteases: human neutrophil elastase (HNE), porcine pancreatic elastase (PPE) and human pancreatic chymotrypsin and one cysteine protease: human liver cathepsin B. In all cases a 96-well plate format protocol using a fluorometric Amino-Methyl-Coumarin (AMC) substrate specific for each enzyme was used as described previously (PCT Patent Application No. WO 00/09543) with some modifications to the serine protease assays. All enzymes were purchased from Sigma, EMDbiosciences while the substrates were from Bachem, Sigma and EMDbiosciences.
Compound concentrations varied from 100 to 0.4 μM depending on their potency. The enzyme assays were each initiated by addition of substrate to enzyme-inhibitor pre-incubated for 10 min at room temperature and hydrolysis to 15% conversion as measured on cytofluor.
50 mM Tris-HCl, pH 8.0, 50 mM NaCl, 0.1 mM EDTA, 3% DMSO, 0.02% Tween-20, 5 μM succ-AAPV-AMC and 20 nM HNE or 8 nM PPE;
The percentage of inhibition was calculated using the formula: [1−((UVinh−UVblank)/(UVctl−UVblank))]×100
A non-linear curve fit was applied to the inhibition-concentration data, and the 50% effective concentration (IC50) was calculated by the use of Excel XLfit software.

Experiment [2] deals with HCV replicon in HUH-7 cells. As to the kind of experiment: HCV replicon FRET assay. As to conditions: Hepatitis C virus, Huh-7; read-out: EC50 value in the replicon FRET assay. The class given is cell-based, HCV strain 1b.

SMILES strings stand for the structures.

T1 sequence (P00772 27-266): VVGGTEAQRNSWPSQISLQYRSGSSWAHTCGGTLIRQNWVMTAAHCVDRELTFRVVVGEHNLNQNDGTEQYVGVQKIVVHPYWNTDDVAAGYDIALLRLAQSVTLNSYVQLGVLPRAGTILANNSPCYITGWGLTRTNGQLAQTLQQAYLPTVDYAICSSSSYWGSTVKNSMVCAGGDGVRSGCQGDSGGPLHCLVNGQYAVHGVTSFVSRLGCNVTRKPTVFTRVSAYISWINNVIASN

For `C=C[C@@H]1C[C@]1(NC(=O)[C@@H]1C[C@@H](Oc2ncc(OC)c3ccc(Cl)cc23)CN1C(=O)[C@@H](Nc1nc(-c2cccc(OC(F)(F)F)c2)cs1)C(C)(C)C)C(=O)NS(=O)(=O)C1CC1` [Example 68], in experiment [1], the IC50 is greater than 50000 nM. In addition, the EC50 in experiment [2] came out at 5.7 nM.
